For 24 compounds, IC50 and Ki results are on record in ChEMBL document CHEMBL1909046, “DrugMatrix in vitro pharmacology data”.

pIC50, pKi: −log10 of the molar value.

Data set [1] deals with T1, Cholecystokinin receptor type A (Homo sapiens, UniProt P32238).
T1 sequence (P32238 whole entry): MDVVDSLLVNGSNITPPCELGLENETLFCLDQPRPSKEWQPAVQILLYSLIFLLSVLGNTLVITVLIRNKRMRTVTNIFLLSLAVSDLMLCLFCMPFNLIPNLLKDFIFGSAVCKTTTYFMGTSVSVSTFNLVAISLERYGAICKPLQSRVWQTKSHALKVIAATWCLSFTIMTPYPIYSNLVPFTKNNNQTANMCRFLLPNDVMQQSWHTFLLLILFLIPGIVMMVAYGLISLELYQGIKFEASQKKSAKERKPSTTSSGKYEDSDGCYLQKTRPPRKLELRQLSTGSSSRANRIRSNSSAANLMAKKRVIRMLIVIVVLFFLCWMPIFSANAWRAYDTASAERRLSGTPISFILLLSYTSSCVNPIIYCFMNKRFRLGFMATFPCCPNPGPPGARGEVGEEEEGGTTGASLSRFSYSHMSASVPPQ
The class given is cell membranes, Membrane. The conditions noted are these: 1321-n1.

The target in the next data set is D(3) dopamine receptor (Homo sapiens, UniProt P35462). In words: DRUGMATRIX: Dopamine D3 radioligand binding (ligand: [3H] Spiperone). The class given is cell membranes, CHO, Membrane. Particulars: for IC50: cho.
The target of data set [2] is Delta-type opioid receptor (Homo sapiens, UniProt P41143). In kind it is cell membranes, HEK293, Membrane. Particulars: hek293. Note: in other assays of this panel Not Active means under 50% inhibition at 10 µM.
Data set [3] deals with T2, Receptor-type tyrosine-protein phosphatase C (Homo sapiens, UniProt P08575).
T2 sequence (P08575 whole entry): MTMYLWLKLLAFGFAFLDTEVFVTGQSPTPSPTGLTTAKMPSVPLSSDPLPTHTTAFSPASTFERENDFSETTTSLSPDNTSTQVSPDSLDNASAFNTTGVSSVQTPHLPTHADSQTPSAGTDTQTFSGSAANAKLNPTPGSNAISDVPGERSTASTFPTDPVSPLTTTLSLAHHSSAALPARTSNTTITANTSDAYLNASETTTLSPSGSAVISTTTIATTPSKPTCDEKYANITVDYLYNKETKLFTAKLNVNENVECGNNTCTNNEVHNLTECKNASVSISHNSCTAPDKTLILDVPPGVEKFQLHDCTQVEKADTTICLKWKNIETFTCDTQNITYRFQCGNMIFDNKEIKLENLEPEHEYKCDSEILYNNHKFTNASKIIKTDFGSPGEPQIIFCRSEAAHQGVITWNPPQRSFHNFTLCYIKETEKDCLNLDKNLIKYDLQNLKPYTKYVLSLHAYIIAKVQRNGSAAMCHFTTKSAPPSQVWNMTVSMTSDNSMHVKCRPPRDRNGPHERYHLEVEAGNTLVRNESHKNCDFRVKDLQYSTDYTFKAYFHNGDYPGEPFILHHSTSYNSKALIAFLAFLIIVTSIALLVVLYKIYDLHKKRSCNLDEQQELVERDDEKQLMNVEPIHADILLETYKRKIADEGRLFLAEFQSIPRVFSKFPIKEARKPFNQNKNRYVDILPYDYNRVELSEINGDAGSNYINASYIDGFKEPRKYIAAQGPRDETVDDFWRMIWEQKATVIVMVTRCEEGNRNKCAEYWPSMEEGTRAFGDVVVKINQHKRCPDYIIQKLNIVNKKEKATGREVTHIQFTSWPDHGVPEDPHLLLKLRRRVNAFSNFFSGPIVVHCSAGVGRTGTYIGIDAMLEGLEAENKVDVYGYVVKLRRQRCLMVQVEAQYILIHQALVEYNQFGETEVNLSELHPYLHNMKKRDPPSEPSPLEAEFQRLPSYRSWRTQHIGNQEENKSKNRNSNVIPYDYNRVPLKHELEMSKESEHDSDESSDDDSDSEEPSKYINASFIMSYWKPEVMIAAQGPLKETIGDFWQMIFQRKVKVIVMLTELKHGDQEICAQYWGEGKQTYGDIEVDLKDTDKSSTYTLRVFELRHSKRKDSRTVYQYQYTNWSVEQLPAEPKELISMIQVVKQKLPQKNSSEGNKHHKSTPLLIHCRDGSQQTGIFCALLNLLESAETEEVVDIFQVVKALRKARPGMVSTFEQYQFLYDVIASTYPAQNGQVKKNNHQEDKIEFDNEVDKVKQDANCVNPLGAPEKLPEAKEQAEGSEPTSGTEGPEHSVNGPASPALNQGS
Set-up: species or system Escherichia coli.

The next data set concerns the target Cytochrome P450 2D6 (Homo sapiens, UniProt P10635). Particulars: bti-tn-5b1-4. Note: in other assays of this panel Not Active means under 50% inhibition at 10 µM.

Chain of Delta-type opioid receptor (P41143 whole entry): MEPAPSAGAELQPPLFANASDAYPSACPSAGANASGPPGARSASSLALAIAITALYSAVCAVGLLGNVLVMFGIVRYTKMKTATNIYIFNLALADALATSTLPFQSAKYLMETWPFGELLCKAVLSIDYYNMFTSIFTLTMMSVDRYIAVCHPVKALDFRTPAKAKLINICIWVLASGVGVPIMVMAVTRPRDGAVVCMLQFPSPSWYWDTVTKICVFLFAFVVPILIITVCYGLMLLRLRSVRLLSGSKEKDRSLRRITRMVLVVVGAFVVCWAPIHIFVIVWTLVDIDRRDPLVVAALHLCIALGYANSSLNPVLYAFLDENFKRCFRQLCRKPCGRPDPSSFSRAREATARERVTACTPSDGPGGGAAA
Chain of D(3) dopamine receptor (P35462 whole entry): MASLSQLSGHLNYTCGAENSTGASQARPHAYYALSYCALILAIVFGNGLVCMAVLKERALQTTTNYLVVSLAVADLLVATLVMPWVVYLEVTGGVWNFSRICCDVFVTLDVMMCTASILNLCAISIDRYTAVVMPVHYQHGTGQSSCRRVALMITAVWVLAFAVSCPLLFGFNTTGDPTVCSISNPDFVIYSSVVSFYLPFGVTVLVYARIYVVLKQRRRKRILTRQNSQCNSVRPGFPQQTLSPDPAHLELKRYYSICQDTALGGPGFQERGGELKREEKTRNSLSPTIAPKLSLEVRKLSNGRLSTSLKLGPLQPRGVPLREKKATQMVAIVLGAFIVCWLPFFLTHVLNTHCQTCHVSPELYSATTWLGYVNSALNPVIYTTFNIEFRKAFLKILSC
Chain of Cytochrome P450 2D6 (P10635 whole entry): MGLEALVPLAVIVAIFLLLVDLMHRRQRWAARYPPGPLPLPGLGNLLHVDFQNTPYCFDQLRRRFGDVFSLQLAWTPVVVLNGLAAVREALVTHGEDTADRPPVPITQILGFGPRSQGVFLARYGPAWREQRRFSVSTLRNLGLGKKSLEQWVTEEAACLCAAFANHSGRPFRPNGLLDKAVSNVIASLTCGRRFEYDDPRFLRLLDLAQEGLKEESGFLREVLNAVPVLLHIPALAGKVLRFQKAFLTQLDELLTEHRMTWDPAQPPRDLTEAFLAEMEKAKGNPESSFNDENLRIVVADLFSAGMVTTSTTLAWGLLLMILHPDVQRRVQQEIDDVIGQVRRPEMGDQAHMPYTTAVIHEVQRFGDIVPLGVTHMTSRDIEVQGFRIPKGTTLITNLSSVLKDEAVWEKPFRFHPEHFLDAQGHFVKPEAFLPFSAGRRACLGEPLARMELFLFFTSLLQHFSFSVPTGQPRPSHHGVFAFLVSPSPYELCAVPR

In the case of `c1ccc(Nc2ccc(Nc3ccccc3)cc2)cc1`, the IC50 result (in data set [1]; on D(3) dopamine receptor; in data set [2]; in data set [3]; at Cytochrome P450 2D6) was “Not Active” throughout. Moreover, on Cytochrome P450 2D6, the Ki entry is reported as “Not Active”.
Turning to `COc1cc2c3cc1Oc1cc(ccc1O)C[C@@H]1c4c(cc(OC)c(O)c4Oc4ccc(cc4)C[C@@H]3N(C)CC2)CC[N+]1(C)C.[Cl-]`, the IC50 result (in data set [1]; on D(3) dopamine receptor; in data set [2]; in data set [3]; at Cytochrome P450 2D6) was “Not Active” in each case. Moreover, the Ki result at Cytochrome P450 2D6 was “Not Active”.
For `O=C1CC[C@@H](N2C(=O)c3ccccc3C2=O)C(=O)N1`, the IC50 result (in data set [1]; on D(3) dopamine receptor; in data set [2]; in data set [3]; against Cytochrome P450 2D6) was “Not Active” in each case. Besides, the Ki result on Cytochrome P450 2D6 was “Not Active”.
In the case of `Cc1ccc2cc3c(ccc4ccccc43)c3c2c1CC3` [3-METHYLCHOLANTHRENE], the IC50 entry (in data set [1]; at D(3) dopamine receptor; in data set [2]; in data set [3]; at Cytochrome P450 2D6) was “Not Active” each time. In addition, the Ki entry at Cytochrome P450 2D6 is “Not Active”.
For `CC[C@@]1(O)C[C@H](O[C@H]2C[C@H](N(C)C)[C@H](O[C@H]3C[C@H](O)[C@H](O[C@H]4CCC(=O)[C@H](C)O4)[C@H](C)O3)[C@H](C)O2)c2c(cc3c(c2O)C(=O)c2c(O)cccc2C3=O)[C@H]1C(=O)OC` [ACLARUBICIN], the IC50 entry (in data set [1]; on D(3) dopamine receptor; in data set [2]; in data set [3]; against Cytochrome P450 2D6) was “Not Active” in each case. The Ki entry at Cytochrome P450 2D6 was “Not Active”.
For the compound `Nc1nc2c(ncn2COCCO)c(=O)[nH]1` [ACYCLOVIR], the IC50 result (in data set [1]; at D(3) dopamine receptor; in data set [2]; in data set [3]; on Cytochrome P450 2D6) was “Not Active” in each case. Moreover, the Ki result on Cytochrome P450 2D6 is on record as “Not Active”.
With `Cc1c(C)c2c(c(C)c1O)CC[C@@](C)(CCC[C@H](C)CCC[C@H](C)CCCC(C)C)O2` [ALPHA-TOCOPHEROL], the IC50 result (in data set [1]; at D(3) dopamine receptor; in data set [2]; in data set [3]; at Cytochrome P450 2D6) was “Not Active” in each case. Also, the Ki result at Cytochrome P450 2D6 was “Not Active”.
Consider `CN(C)c1nc(N(C)C)nc(N(C)C)n1` [ALTRETAMINE], for which the IC50 entry (in data set [1]; at D(3) dopamine receptor; in data set [2]; in data set [3]) was “Not Active” in each case.
With `NCCCCCC(=O)O` [AMINOCAPROIC ACID], the IC50 entry (in data set [1]; at D(3) dopamine receptor; in data set [2]; in data set [3]; at Cytochrome P450 2D6) was “Not Active” each time. Besides, the Ki result on Cytochrome P450 2D6 is listed as “Not Active”.
Consider `Cc1ccc(/N=C/N(C)/C=N/c2ccc(C)cc2C)c(C)c1` [AMITRAZ], for which the IC50 entry (in data set [1]; at D(3) dopamine receptor; in data set [2]; in data set [3]; at Cytochrome P450 2D6) was “Not Active” each time. In addition, the Ki entry on Cytochrome P450 2D6 is “Not Active”.
For the compound `CCOC(=O)C1=C(COCCN)NC(C)=C(C(=O)OC)C1c1ccccc1Cl` (centres undefined) [AMLODIPINE], the IC50 result (in data set [1]; on D(3) dopamine receptor; in data set [2]; in data set [3]; against Cytochrome P450 2D6) was “Not Active” each time. Moreover, on Cytochrome P450 2D6, the Ki entry is listed as “Not Active”.
As for `CNCCc1ccccn1` [BETAHISTINE], the IC50 result (in data set [1]; at D(3) dopamine receptor; in data set [2]; in data set [3]; at Cytochrome P450 2D6) was “Not Active” in each case. Besides, the Ki entry on Cytochrome P450 2D6 is given as “Not Active”.
Regarding `CC(C)C(Br)C(=O)NC(N)=O` (centres undefined) [BROMISOVALUM], the IC50 result (in data set [1]; at D(3) dopamine receptor; in data set [2]; in data set [3]; at Cytochrome P450 2D6) was “Not Active” throughout. The Ki result on Cytochrome P450 2D6 is recorded as “Not Active”.
As to `CCCC1O[C@@H]2C[C@H]3[C@@H]4CCC5=CC(=O)C=C[C@]5(C)[C@H]4[C@@H](O)C[C@]3(C)[C@]2(C(=O)CO)O1` (some centres undefined) [BUDESONIDE], the IC50 result (in data set [1]; on D(3) dopamine receptor; in data set [2]; in data set [3]; on Cytochrome P450 2D6) was “Not Active” throughout. Besides, the Ki entry at Cytochrome P450 2D6 is “Not Active”.
In the case of `O=C(O)CCCc1ccc(N(CCCl)CCCl)cc1` [CHLORAMBUCIL], the IC50 result (in data set [1]; on D(3) dopamine receptor; in data set [2]; in data set [3]; on Cytochrome P450 2D6) was “Not Active” throughout. On Cytochrome P450 2D6, the Ki entry is “Not Active”.
Consider `CN(C)CCCN1c2ccccc2Sc2ccc(Cl)cc21` [CHLORPROMAZINE], for which the IC50 result in data set [1] and in data set [3] was “Not Active” each time.
On to `C[C@H](CCC(=O)O)[C@H]1CC[C@H]2[C@@H]3[C@H](O)C[C@@H]4C[C@H](O)CC[C@]4(C)[C@H]3C[C@H](O)[C@]12C` [CHOLIC ACID], for which the IC50 result (in data set [1]; at D(3) dopamine receptor; in data set [2]; in data set [3]; on Cytochrome P450 2D6) was “Not Active” each time. Moreover, the Ki result at Cytochrome P450 2D6 is “Not Active”.
With `Cc1cc(C2CCCCC2)n(O)c(=O)c1` [CICLOPIROX], the IC50 result (in data set [1]; on D(3) dopamine receptor; in data set [2]; in data set [3]; at Cytochrome P450 2D6) was “Not Active” each time. At Cytochrome P450 2D6, the Ki entry is “Not Active”.
In the case of `CC(C)(Oc1ccc(Cl)cc1)C(=O)O` [CLOFIBRIC ACID], the IC50 entry (in data set [1]; at D(3) dopamine receptor; in data set [2]; in data set [3]) was “Not Active” in each case.
Regarding `Clc1cccc(Cl)c1NC1=NCCN1` [CLONIDINE], the IC50 entry (in data set [1]; on D(3) dopamine receptor; in data set [2]; in data set [3]; on Cytochrome P450 2D6) was “Not Active” each time. In addition, at Cytochrome P450 2D6, the Ki entry is “Not Active”.
On to `C[C@]12CC[C@@H]3c4ccc(O)cc4CC[C@H]3[C@@H]1CCC2=O` [ESTRONE], for which the IC50 result (in data set [1]; on D(3) dopamine receptor; in data set [2]; in data set [3]) was “Not Active” throughout.
For the compound `N=C(N)NCCN1CCCCCCC1` [GUANETHIDINE], the IC50 entry (in data set [1]; at D(3) dopamine receptor; in data set [2]; in data set [3]) was “Not Active” each time.
As to `CC1(C)S[C@@H]2[C@H](NC(=O)Cc3ccccc3)C(=O)N2[C@H]1C(=O)O` [PENICILLIN G], the IC50 result (in data set [1]; on D(3) dopamine receptor; in data set [2]; in data set [3]) was “Not Active” throughout.
As a reminder, the pIC50 is the negative decadic logarithm of the IC50, by convention in mol/L. One may read the pKi as −log10 of the Ki, conventionally taken in molar units. With `CN(C)CCCN1c2ccccc2Sc2ccccc21` [PROMAZINE], the IC50 entry in data set [1], in data set [2] and in data set [3] was “Not Active” in each case. Besides, the negative-log IC50 (pIC50) on D(3) dopamine receptor (read-out: IC50) was 6.69. Also, the pKi on D(3) dopamine receptor (read-out: Ki) is 7.16.
